What all share (conditions): read-out: In absence of RNA / KM; no RNA; 100 mM NaCl, 10 mM Tris pH 7.5, 2 mM MgCl2
Assay [1] concerns Prp43-Ntr1(51–102).
The subject of assay [2] is Prp43-Ntr1(59–110).
Assay [3] has as its system Prp43-Ntr1(62–110).
Assay [4] relates to Prp43(1–745)-Ntr1(51–110).
For assay [5], the system named is Prp43-Ntr1(51–110).
Assay [6] relates to Prp43-Ntr1(51–99).

Here are results for 1 molecule from publication PMC3902948 (Nucleic Acids Research, 2013).

For `Nc1ncnc2c1ncn2[C@@H]1O[C@H](COP(=O)(O)OP(=O)(O)OP(=O)(O)O)[C@@H](O)[C@H]1O` [ATP], the Km in assay [1] stood at 17.5 ± 2.43 µM; in assay [2] it was 8.77 ± 1.09 µM; in assay [3], 10.6 ± 2.18 µM; in assay [4] it was 28.3 ± 4.61 µM; in assay [5], 39.5 ± 3.92 µM; in assay [6], 10.7 ± 1.38 µM.
